The assay concerns GM-CSF-induced STAT5 phosphorylation in KU812 cells. The note with it: dasatinib alone 100 nM, GM-CSF 4 ng/ml for 10 minutes, FIG. 6.

Method: KU812 cells (a myeloid precursor cell line established from the peripheral blood of a patient in blast crisis of CML) were cultured with 100 nM dasatinib with or without Bion-1 (100 nM) and constitutively stimulated with GM-CSF (4 ng/ml) for 10 minutes.

For `Cc1nc(Nc2ncc(C(=O)Nc3c(C)cccc3Cl)s2)cc(N2CCN(CCO)CC2)n1` [dasatinib], the “inhibition of p-STAT5 phosphorylation in the presence of GM-CSF” value is given as “does not inhibit”.

Source of the values: patent US20250122295A1, “METHOD OF TREATMENT OF PHILADELPHIA CHROMOSOME POSITIVE LEUKEMIA” (CSL LIMITED, priority 2014, published 2025).
